The results in this text go back to US10822309B2, “Crystalline form of Eluxadoline” (priority 2017, dated 2020).

This data set can be described thus: PXRD studies of capped and uncapped samples after storage in stability chambers (polymorphic stability). It is filed as physicochemical. As for the experimental part: Eluxadoline Form APO-I can be characterized by a PXRD diffractogram comprising, among other peaks, characteristic peaks, expressed in degrees 2θ (±0.2°), at 6.4°, 6.9° and 11.4°. Preferably, the PXRD diffractogram further comprises at least three peaks, expressed in degrees 2θ (±0.2°), selected from the group consisting of 8.7°, 9.9°, 12.7°, 14.8°, 15.8°, 17.5°, 18.9°, 19.8° and 23.8°. More preferably, the PXRD diffractogram further comprises peaks, expressed in degrees 2θ (±0.2°), at 8.7°, 9.9°, 12.7°, 14.8°, 15.8°, 17.5°, 18.9°, 19.8° and 23.8°. PXRD studies of capped and uncapped samples of Eluxadoline Form APO-I have shown that this crystal form is stable following storage in stability chambers maintained at 27° C./60% RH and 40° C./75% RH for at least 10 days.
PXRD diffractograms were recorded on a Bruker D8 Discover powder X-ray diffractometer (Bruker-AXS, Karlsruhe, Germany). The generator was a Micro-focus X-ray source (IMSTube: Cu tube with 1.54184 A) with a voltage of 50 kV and current of 1.00 mA, using a divergence slit of 0.3 mm and collimator of 0.3 mm. For each sample, one frame was collected using a still scan with a Pilatus 3R-100 kA detector at the distance of 154.72 mm from the sample. Raw data were evaluated using the program EVA (Bruker-AXS, Karlsruhe, Germany).

Take `COc1ccc(CN(C(=O)[C@@H](N)Cc2c(C)cc(C(N)=O)cc2C)[C@@H](C)c2nc(-c3ccccc3)c[nH]2)cc1C(=O)O` [Eluxadoline Form APO-I, 5-({[(2S)-2-amino-3-(4-carbamoyl-2,6-dimethylphenyl)propionyl]-[(1S)-1-(4-phenyl-1H-imidazol-2-yl)ethyl]amino}-methyl)-2-methoxybenzoic acid]: the “crystal form stable following storage (PXRD)” value (stability chamber 27° C./60% RH) is “at least 10 days”. Besides, the “crystal form stable / resists polymorph conversion following storage (PXRD)” value (stability chamber 40° C./75% RH) is recorded as “at least 10 days”.
